Measurements: BindingDB's records for patent WO2022076764 (BRISTOL-MYERS SQUIBB COMPANY, 2022)

Legend:
[1] = target: T1, N-formyl peptide receptor 2 (Homo sapiens, UniProt P25090)
T1 sequence (P25090 whole entry): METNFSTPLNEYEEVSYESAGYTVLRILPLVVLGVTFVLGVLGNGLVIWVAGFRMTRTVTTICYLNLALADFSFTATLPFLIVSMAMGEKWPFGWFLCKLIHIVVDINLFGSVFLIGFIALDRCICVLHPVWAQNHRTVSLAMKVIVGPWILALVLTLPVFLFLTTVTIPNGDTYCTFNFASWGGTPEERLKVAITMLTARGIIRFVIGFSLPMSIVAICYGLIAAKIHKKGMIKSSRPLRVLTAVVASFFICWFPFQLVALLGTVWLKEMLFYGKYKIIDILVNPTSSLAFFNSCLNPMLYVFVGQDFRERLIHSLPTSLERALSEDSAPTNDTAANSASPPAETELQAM

fMet-Leu-Phe receptor = target: T2, fMet-Leu-Phe receptor (Homo sapiens, UniProt P21462)
T2 sequence (P21462 whole entry): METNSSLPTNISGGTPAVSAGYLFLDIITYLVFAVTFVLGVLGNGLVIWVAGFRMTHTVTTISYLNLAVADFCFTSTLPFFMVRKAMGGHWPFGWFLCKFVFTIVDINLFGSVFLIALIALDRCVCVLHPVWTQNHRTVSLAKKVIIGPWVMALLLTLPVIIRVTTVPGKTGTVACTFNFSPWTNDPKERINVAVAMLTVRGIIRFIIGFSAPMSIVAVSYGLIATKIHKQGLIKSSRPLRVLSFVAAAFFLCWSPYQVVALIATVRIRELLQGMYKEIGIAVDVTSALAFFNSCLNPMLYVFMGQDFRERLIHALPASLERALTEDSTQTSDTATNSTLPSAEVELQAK

Structure (SMILES) | EC50 [1] | EC50 (fMet-Leu-Phe receptor)
COc1cc(F)c(-n2cc(C(=O)NCc3ccncc3)nc2NC(=O)c2ccc(OC(F)F)cc2)c(F)c1 [WO2022076764, Example 48] | 600 nM | 110 nM
COc1cc(F)c(-n2cc(C(=O)NCC3CCC(O)CC3)nc2NC(=O)c2ccc(OC(F)F)cc2)c(F)c1 (stereo not given) [WO2022076764, Example 49] | 750 nM | 90 nM
COc1cc(F)c(-n2cc(C(=O)N3CCC[C@H]3CO)nc2NC(=O)c2ccc(OC(F)F)cc2)c(F)c1 [WO2022076764, Example 50] | > 10000 nM | 77 nM
COc1cc(F)c(-n2cc(C(=O)N3CCCC(O)C3)nc2NC(=O)c2ccc(OC(F)F)cc2)c(F)c1 (stereo not given) [WO2022076764, Example 51] | 2900 nM | 83 nM
COc1cc(F)c(-n2cc(C(=O)N3CCC(O)CC3)nc2NC(=O)c2ccc(OC(F)F)cc2)c(F)c1 [WO2022076764, Example 52] | > 10000 nM | 63 nM
COc1cc(F)c(-n2cc(C(=O)NCCO)nc2NC(=O)c2ccc(OC(F)F)cc2)c(F)c1 [WO2022076764, Example 53] | 4100 nM | 130 nM
COc1cc(F)c(-n2cc(C(=O)N3CCOCC3)nc2NC(=O)c2ccc(OC(F)F)cc2)c(F)c1 [WO2022076764, Example 54] | > 10000 nM | 320 nM
COc1cc(F)c(-n2cc(C(=O)N3CCN(C)CC3)nc2NC(=O)c2ccc(OC(F)F)cc2)c(F)c1 [WO2022076764, Example 55] | > 10000 nM | 280 nM
COc1cc(F)c(-n2cc(C(=O)NCc3cnc(C)cn3)nc2NC(=O)c2ccc(OC(F)F)cc2)c(F)c1 [WO2022076764, Example 56] | 110 nM | 89 nM
COc1cc(F)c(-n2cc(C(=O)N3CC[C@H](O)C3)nc2NC(=O)c2ccc(OC(F)F)cc2)c(F)c1 [WO2022076764, Example 57] | 1900 nM | 120 nM
COc1cc(F)c(-n2cc(C(=O)N3CCNC(=O)C3)nc2NC(=O)c2ccc(OC(F)F)cc2)c(F)c1 [WO2022076764, Example 58] | 3400 nM | 170 nM
COc1cc(F)c(-n2cc(C(=O)N3CCC(CO)C3)nc2NC(=O)c2ccc(OC(F)F)cc2)c(F)c1 (stereo not given) [WO2022076764, Example 59] | 2200 nM | 82 nM
COc1cc(F)c(-n2cc(C(=O)NCCCO)nc2NC(=O)c2ccc(OC(F)F)cc2)c(F)c1 [WO2022076764, Example 60] | 1400 nM | 56 nM
COc1cc(F)c(-n2cc(C(=O)N3CCNCC3)nc2NC(=O)c2ccc(OC(F)F)cc2)c(F)c1 [WO2022076764, Example 61] | > 10000 nM | 130 nM
COc1cc(F)c(-n2cc(C(=O)Nc3cn[nH]c3)nc2NC(=O)c2ccc(OC(F)F)cc2)c(F)c1 [WO2022076764, Example 62] | 830 nM | 32 nM
COc1cc(F)c(-n2cc(C3CCNCC3)nc2NC(=O)c2ccc(OC(F)F)cc2)c(F)c1 [WO2022076764, Example 63] | 710 nM | 10 nM
COc1ccc(-n2cc(C3CCCNC3)nc2NC(=O)c2ccc(OC(F)F)cc2)cc1 (stereo not given) [WO2022076764, Example 64] | 210 nM | 11 nM
CCS(=O)(=O)N1CCC(c2cn(-c3c(F)cc(OC)cc3F)c(NC(=O)c3ccc(OC(F)F)cc3)n2)CC1 [WO2022076764, Example 65] | 320 nM | 81 nM
CCNC(=O)N1CCC(c2cn(-c3c(F)cc(OC)cc3F)c(NC(=O)c3ccc(OC(F)F)cc3)n2)CC1 [WO2022076764, Example 66] | 540 nM | 28 nM
COc1cc(F)c(-n2cc(C3CCN(C(=O)CCC(N)=O)CC3)nc2NC(=O)c2ccc(OC(F)F)cc2)c(F)c1 [WO2022076764, Example 67] | 83 nM | 54 nM
COc1cc(F)c(-n2cc(C3CCN(C(=O)CCO)CC3)nc2NC(=O)c2ccc(OC(F)F)cc2)c(F)c1 [WO2022076764, Example 68] | 110 nM | 45 nM
COc1cc(F)c(-n2cc(C(=O)N3CCC(CO)CC3)nc2NC(=O)c2ccc(OC(F)F)cc2)c(F)c1 [WO2022076764, Example 69] | 2990 nM | 86 nM
COc1cc(F)c(-n2cc(C(C)C)nc2NC(=O)c2ccc(OC(F)F)cc2)c(F)c1 [WO2022076764, Example 70] | 970 nM | 31 nM
COc1cc(F)c(-n2cc(Cc3ccccc3)nc2NC(=O)c2ccc(OC(F)F)cc2)c(F)c1 [WO2022076764, Example 71] | 1300 nM | 46 nM
CCOC(=O)Cc1cn(-c2c(F)cc(OC)cc2F)c(NC(=O)c2ccc(OC(F)F)cc2)n1 [WO2022076764, Example 72] | 470 nM | 22 nM
